As a reminder, the Ki is the dissociation constant of the complex between target and ligand, obtained from inhibition or displacement. The term Km denotes the substrate concentration at which the rate is half of its maximum. By kcat is commonly meant the number of substrate molecules converted per active site and unit of time at saturation.

Like-named read-outs stand apart in the source and are kept apart here. Where only a bound is given, the exact number is not on record here.

Assay [1] has as its system PTP1B. The settings on record: substrate pNPP; cited from earlier work.
The target in assay [2] is PTP1B. The settings on record: ref Makinen, M. W. and Zhou, K. I., unpublished observations; cited from earlier work.
Assay [3] addresses T1, soluble portion of human PTP1B (residues 1-321) (Homo sapiens, UniProt P18031).
T1 sequence (P18031 1-321): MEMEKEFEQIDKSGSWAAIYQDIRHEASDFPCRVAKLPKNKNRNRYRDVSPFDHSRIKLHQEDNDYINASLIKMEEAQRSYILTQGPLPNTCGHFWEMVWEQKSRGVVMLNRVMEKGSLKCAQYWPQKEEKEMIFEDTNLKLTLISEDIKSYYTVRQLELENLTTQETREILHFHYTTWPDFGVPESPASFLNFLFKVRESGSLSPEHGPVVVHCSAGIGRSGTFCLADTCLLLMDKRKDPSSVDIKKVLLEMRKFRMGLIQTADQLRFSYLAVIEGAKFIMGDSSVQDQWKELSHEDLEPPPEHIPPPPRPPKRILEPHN
Nature of the assay: Steady-state inhibition of PTP1B-catalyzed hydrolysis of pNPP. The settings on record: substrate pNPP; for Ki: 0.1 M NaCl, pH 5, 22° C, N2-purged. Type of assay: biochemical.

The target in assay [4] is T1, soluble portion of human PTP1B (residues 1-321). The class given is biochemical.
The test system of assay [5] is fused protein construct of glutathione-S-transferase and the full length PTP1B polypeptide chain (435 residues). As to conditions: substrate pNPP; cited from earlier work.
Assay [6] concerns PTP1B. As to conditions: substrate DADEpYLIPQQG; malachite green, 30 min, not steady-state; cited from earlier work.
In assay [7] the target is T1, soluble portion of human PTP1B (residues 1-321). Type of assay: biochemical. As to conditions: substrate hydrolysis, no inhibitor; this study.
The subject of assay [8] is Rat PTP1 (residues 1–323). The settings on record: 0.1 M ionic strength, pH 5.5; cited from earlier work.

Turning to `CCc1oc2cc(S(=O)(=O)Nc3ccc(S(N)(=O)=O)cc3)ccc2c1C(=O)c1cc(Br)c(O)c(Br)c1` [Compound 2, 3-(3,5-dibromo-4-hydroxy-benzoyl)-2-ethyl-benzofuran-6-sulfonic acid (4-sulfamoyl-phenyl)amide], the mode of inhibition result with PTP1B [1] is listed as “noncompetitive inhibition”.
As to `CC(=O)/C=C(/C)O` [Mg(acac)2], the Ki on PTP1B [2] is over 600 µM.
`CCc1occc(=O)c1[O-].CCc1occc(=O)c1[O-].[O]=[V+2]` [VO(Et-malto)2, bis(2-ethyl-maltolato)oxidovanadium(IV)]: the mode of inhibition result in assay [3] is “noncompetitive inhibition”; in assay [4] (substrate EGFR^988-998 (DADEpYLIPQQG)) it was “noncompetitive”. Besides, the inhibition constant Ki was determined as 14.8 ± 1.4 µM in assay [3] and 0.14 ± 0.01 µM in assay [4] (substrate EGFR^988–998, 0.1 M NaCl, pH 6, 20° C, N2-purged).
Consider `Cc1occc(=O)c1[O-].Cc1occc(=O)c1[O-].[O]=[V+2]` [VO(Me-malto)2, bis(2-methyl-maltolato)oxidovanadium(IV)], for which the mode of inhibition result in assay [5] is reported as “mixed inhibition”.
As for `CC(=O)/C=C(/C)[O-].CC(=O)/C=C(/C)[O-].[O]=[V+2]` [VO(acac)2, bis(acetylacetonato)oxidovanadium(IV)], the mode of inhibition entry with PTP1B [6] was “uncompetitive behavior”.
Consider `Cc1[nH]ccc(=O)c1[O-].Cc1[nH]ccc(=O)c1[O-].[O]=[V+2]` [VO(mpp)2, bis(3-hydroxy-2-methyl-4(1H)pyridinonato)oxidovanadium(IV)], for which, in assay [3], the mode of inhibition entry is “competitive inhibition” and the affinity corresponds to a Ki of 38.2 ± 0.5 µM.
On to `O=[N+]([O-])c1ccc(OP(=O)(O)O)cc1` [pNPP, para-nitrophenylphosphate], for which the Km in assay [7] is 460 ± 120 µM; in assay [8], 339 ± 16 µM. In addition, the values for the kcat in assay [7] and in assay [8] were 62.9 ± 12.0 s⁻¹ and 69.2 ± 1.1 s⁻¹, respectively.
